Experimental data as given in patent publication US6008041A, “Bovine dipeptidylaminopeptidase 1” (Eli Lilly and Company, priority 1997, dated 1999).
Peptide text beside a SMILES is read from it. * marks the point of attachment. pNA = O=[N+]([O-])c1ccc(N*)cc1; βNA = c1ccc2cc(N*)ccc2c1; Cbz = O=C(OCc1ccccc1)*

Assays:
[1] = system: bDAP 1; experiment: Cleavage of RRBNA / Z-RRBNA (fluorescence); format: biochemical, bovine; conditions: for ability of the enzyme to cleave the substrate: 0.25 mM substrate, pH 3.5 or pH 5.0, about 15 milliunit/ml enzyme
Protocol: (§1) About 0.25 mM RRBNA or 0.25 mM Z-RRBNA was prepared in either 100 mM acetic acid, pH 3.5, or 100 mM citrate buffer, pH 5.0. To 2 ml of substrate was added bDAP 1 or bovine DAP-I (about 15 milliunit/ml solution). Rates of cleavage (monitoring fluorescence increase at 410 nm with excitation at 340 nm) were monitored. […] The pH optimum for cleavage of RRBNA was probed by monitoring the rate of RRBNA cleavage using a buffer system consisting of 50 mM acetic acid and 50 mM citrate. Various pHs were achieved using HCl or NaOH and 1.5 ml volumes were made 2.0 with 0.5 ml of a 1 mM stock solution of RRBNA (final concentration of about 0.25 mM). bDAP 1 was added (to about 15 mU/ml) and the rates of cleavage were determined.

[2] = target: Bovine DAP-I (Bos taurus, UniProt Q3ZCJ8); experiment: Cleavage of RRBNA / Z-RRBNA (fluorescence); format: biochemical; conditions: 0.25 mM substrate, pH 3.5 or pH 5.0, about 15 milliunit/ml enzyme
Protocol: as §1

[3] = system: bDAP 1; experiment: Inhibition of GFpNA cleavage by sulfhydryl modifying agents; format: biochemical, bovine; conditions: 0.5, 5.0 or 50 mM inhibitor, 15 minutes at room temperature, pH 7; then 4 mM GFpNA pH 3.5, 37° C.
Protocol: (§2) After purification or storage, bDAP 1 enzymatic activity was usually monitored by following the cleavage of the chromogenic substrate GFpNA. Typically the assay was performed by diluting the enzyme at least 11 fold into 1.0 ml of 4 mM GFpNA in 0.05M acetic acid adjusted to pH 3.5. The rate of cleavage of Gly-Phe dipeptide was monitored at 37° C. by measuring the increase in absorbance at 405 nm. One unit of activity leads to a 0.90 OD change per minute under these conditions. Unit/ml estimates can be made assuming an extinction coefficient for free p-nitroanilide (pNA) of 9.9 mM-1 cm-1 at 405 nm.
(§3) The inhibition profile of bDAP 1 toward the substrate GFpNA was compared to that of bovine spleen DAP-I using iodoacetamide and potassium tetrathionate, sulfihydryl modifying agents known to inhibit the activity of bovine spleen DAP-I. Samples of bDAP 1 or bovine spleen DAP-I were incubated for 15 minutes at room temperature in final concentrations of 0, 0.5, 5.0 or 50 mM of either inhibitor at pH 7 in 100 mM Tris buffer. The incubated solutions were then diluted 21-fold with 4 mM GFpNA, pH 3.5. The rate of cleavage was monitored by measuring the increase in absorbance at 405 nm at 37° C. Bovine DAP-I's rate of cleavage of GFpNA was decreased more than 90% by the exposure to 5 mM iodoacetamide and was 95% inhibited by 5 mM potassium tetrathionate.

[4] = target: bovine spleen DAP-I (Bos taurus, UniProt Q3ZCJ8); experiment: as above; format: biochemical; conditions: 5 mM inhibitor, 15 minutes at room temperature, pH 7, 100 mM Tris; then diluted 21-fold with 4 mM GFpNA pH 3.5, 37° C., 405 nm; read-out: decrease of rate of cleavage of GFpNA (inhibition)
Protocol: as §2, §3

[5] = system: bDAP 1; experiment: pH dependence of GRpNA cleavage; format: biochemical, bovine; conditions: below pH 2.5 or above pH 5
Protocol: Four mM GRpNA was prepared in 50 mM acetic acid, 50 mM glycine buffer, pH 5. HCl or NaOH was used to achieve a variety of pHs, from 5.1 to 2.3. To 180 ul of the above pH buffered substrate was added 5 ul bDAP 1 (49 milliunits/ml final). The rate of increase of absorbance at 410 nm was monitored (using a plate-reader) and the rate of increase was compared with the pH of the reaction solution.

Chain of Bovine DAP-I (Q3ZCJ8 25-134): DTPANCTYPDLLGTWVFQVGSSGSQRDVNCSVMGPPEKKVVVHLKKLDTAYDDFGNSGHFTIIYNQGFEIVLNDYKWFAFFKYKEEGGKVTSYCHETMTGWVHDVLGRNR
Chain of Bovine DAP-I (Q3ZCJ8 231-463): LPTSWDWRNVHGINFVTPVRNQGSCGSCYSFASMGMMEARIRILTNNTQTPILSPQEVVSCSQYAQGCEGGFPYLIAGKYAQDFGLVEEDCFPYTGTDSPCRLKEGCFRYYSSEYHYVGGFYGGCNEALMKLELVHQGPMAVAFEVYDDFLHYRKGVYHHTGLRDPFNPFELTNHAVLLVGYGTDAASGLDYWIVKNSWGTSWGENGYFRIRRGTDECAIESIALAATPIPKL
Chain of bovine spleen DAP-I (Q3ZCJ8 25-134): as the sequence (Q3ZCJ8 25-134) above
Chain of bovine spleen DAP-I (Q3ZCJ8 231-463): as the sequence (Q3ZCJ8 231-463) above

ability of the enzyme to cleave the substrate [1]	ability of the enzyme to cleave the substrate [2]	Structure (SMILES)	inhibition of GFpNA cleavage [3]	further results
able to effectively cleave	unable to cleave	N=C(N)NCCC[C@H](NC(=O)[C@@H](N)CCCNC(=N)N)C(=O)Nc1ccc2ccccc2c1 [RRBNA, Arg-Arg-β-naphthylamide] (H-Arg-Arg-βNA)		activity over the pH range probed ([1]; pH 3.5 to pH 5.7): significant activity
		O=S(=O)([O-])SSS(=O)(=O)[O-].[K+].[K+] [potassium tetrathionate]	no evidence of significant inhibition	
		NC(=O)CI [iodoacetamide]	no evidence of significant inhibition	inhibition at 5000 µM [4]: > 90%
unable to cleave	unable to cleave	N=C(N)NCCC[C@H](NC(=O)OCc1ccccc1)C(=O)N[C@@H](CCCNC(=N)N)C(=O)Nc1ccc2ccccc2c1 [Z-RRBNA, benzyloxycarbonyl-RRBNA] (Cbz-Arg-Arg-βNA)		
		N=C(N)NCCC[C@H](NC(=O)CN)C(=O)Nc1ccc([N+](=O)[O-])cc1 [GRpNA, Gly-Arg-pNA] (H-Gly-Arg-pNA)		activity outside the optimum range [5]: little activity
